From ChEMBL document CHEMBL3414527, “Engineering potent and selective analogues of GpTx-1, a tarantula venom peptide antagonist of the Na(V)1.7 sodium channel” (J Med Chem, 2015)
Bridge positions count the residues as written; N and C are the ends. Peptide text beside a SMILES is read from it.

These compounds were tested against Sodium channel protein type 5 subunit alpha (Homo sapiens, UniProt Q14524) (assay: Inhibition of human NaV1.5 at -140 mV holding potential by whole-cell patch clamp assay).
Chain of Sodium channel protein type 5 subunit alpha (Q14524 whole entry): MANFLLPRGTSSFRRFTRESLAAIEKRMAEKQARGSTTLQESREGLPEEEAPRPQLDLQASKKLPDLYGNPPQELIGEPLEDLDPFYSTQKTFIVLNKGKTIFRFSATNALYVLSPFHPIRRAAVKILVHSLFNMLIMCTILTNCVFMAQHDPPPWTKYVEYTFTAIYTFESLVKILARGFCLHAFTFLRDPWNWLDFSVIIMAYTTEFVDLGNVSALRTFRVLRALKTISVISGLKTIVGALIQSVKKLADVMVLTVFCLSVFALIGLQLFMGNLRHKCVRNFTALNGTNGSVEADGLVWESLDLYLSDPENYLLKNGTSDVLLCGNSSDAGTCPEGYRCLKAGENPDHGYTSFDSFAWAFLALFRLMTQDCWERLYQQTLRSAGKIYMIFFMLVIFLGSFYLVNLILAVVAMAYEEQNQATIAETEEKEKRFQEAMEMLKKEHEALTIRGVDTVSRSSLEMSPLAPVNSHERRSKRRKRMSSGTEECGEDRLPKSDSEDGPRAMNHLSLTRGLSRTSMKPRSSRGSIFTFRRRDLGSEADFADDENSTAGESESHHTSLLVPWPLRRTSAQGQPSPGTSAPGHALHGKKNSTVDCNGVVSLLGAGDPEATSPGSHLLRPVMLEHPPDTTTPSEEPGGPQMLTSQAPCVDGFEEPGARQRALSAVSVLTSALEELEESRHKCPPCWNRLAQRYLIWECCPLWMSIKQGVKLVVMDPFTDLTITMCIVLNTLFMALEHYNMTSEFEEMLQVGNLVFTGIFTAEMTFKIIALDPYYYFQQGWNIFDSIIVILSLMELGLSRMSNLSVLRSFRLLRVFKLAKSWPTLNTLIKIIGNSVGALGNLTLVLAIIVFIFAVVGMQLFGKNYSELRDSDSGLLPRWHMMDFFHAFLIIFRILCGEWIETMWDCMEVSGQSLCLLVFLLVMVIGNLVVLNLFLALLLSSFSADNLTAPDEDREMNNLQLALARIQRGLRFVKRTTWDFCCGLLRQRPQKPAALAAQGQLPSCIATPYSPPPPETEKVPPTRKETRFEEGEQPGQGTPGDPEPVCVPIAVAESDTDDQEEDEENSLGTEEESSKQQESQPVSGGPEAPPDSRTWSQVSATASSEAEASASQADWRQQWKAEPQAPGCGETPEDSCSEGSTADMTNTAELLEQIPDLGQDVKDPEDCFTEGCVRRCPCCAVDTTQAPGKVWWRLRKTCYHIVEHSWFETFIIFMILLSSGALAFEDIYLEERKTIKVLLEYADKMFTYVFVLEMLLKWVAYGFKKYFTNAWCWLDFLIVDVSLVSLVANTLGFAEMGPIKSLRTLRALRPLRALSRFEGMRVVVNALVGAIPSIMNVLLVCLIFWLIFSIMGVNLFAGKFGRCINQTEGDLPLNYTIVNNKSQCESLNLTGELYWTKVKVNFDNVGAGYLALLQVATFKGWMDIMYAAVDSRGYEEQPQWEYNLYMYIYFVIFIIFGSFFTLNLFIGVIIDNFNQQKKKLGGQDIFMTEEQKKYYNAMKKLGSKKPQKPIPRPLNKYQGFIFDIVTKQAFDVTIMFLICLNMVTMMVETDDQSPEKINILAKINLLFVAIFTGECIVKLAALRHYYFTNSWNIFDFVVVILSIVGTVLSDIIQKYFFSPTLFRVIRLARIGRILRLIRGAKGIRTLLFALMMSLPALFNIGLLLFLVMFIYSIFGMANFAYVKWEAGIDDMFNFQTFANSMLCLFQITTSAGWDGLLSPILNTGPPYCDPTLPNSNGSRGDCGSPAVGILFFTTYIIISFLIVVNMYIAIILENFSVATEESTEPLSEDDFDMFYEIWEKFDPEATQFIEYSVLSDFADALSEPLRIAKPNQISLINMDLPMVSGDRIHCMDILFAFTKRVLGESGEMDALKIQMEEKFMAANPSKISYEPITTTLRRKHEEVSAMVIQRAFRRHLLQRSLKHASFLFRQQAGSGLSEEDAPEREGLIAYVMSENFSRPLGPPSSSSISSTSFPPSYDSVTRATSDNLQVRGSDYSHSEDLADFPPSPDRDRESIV
Work on `CC[C@H](C)[C@@H]1NC(=O)[C@@H]2CSSC[C@@H]3NC(=O)[C@H](C(C)C)NC(=O)[C@H](CC(C)C)NC(=O)[C@H](CC(N)=O)NC(=O)[C@@H]4CCCN4C(=O)[C@H](CCCNC(=N)N)NC(=O)[C@H](CSSC[C@H](NC(=O)[C@H](CC(=O)O)NC(=O)[C@H](C)N)C(=O)N[C@@H](CC(C)C)C(=O)NCC(=O)N[C@@H](Cc4ccccc4)C(=O)N[C@@H](CCSC)C(=O)N[C@@H](CCCNC(=N)N)C(=O)N[C@@H](CCCCN)C(=O)N2)NC(=O)[C@H](CSSC[C@@H](C(=O)N[C@@H](CCCCN)C(=O)N[C@@H](Cc2ccc(O)cc2)C(=O)N[C@H](C(=O)N[C@@H](Cc2ccccc2)C(N)=O)C(C)C)NC(=O)[C@H](Cc2c[nH]c4ccccc24)NC(=O)[C@H](CCCCN)NC(=O)[C@H](Cc2cnc[nH]2)NC(=O)[C@H]([C@@H](C)O)NC(=O)[C@H](CCCNC(=N)N)NC(=O)[C@H](CO)NC3=O)NC(=O)[C@H](CCCCN)NC(=O)[C@H](CC(=O)O)NC(=O)[C@H](CC(N)=O)NC(=O)[C@H](CC(=O)O)NC(=O)[C@@H]2CCCN2C1=O` yielded an IC50 of over 5 µM.
Compound `CC[C@H](C)[C@@H]1NC(=O)[C@@H]2CSSC[C@@H]3NC(=O)[C@H](C(C)C)NC(=O)[C@H](CC(C)C)NC(=O)[C@H](CC(N)=O)NC(=O)[C@@H]4CCCN4C(=O)[C@H](CCCNC(=N)N)NC(=O)[C@H](CSSC[C@H](NC(=O)[C@@H](N)CC(=O)O)C(=O)N[C@@H](CC(C)C)C(=O)NCC(=O)N[C@@H](Cc4ccccc4)C(=O)N[C@@H](CCSC)C(=O)N[C@@H](CCCNC(=N)N)C(=O)N[C@@H](CCCCN)C(=O)N2)NC(=O)[C@H](CSSC[C@@H](C(=O)N[C@@H](CCCCN)C(=O)N[C@@H](Cc2ccc(O)cc2)C(=O)N[C@H](C(=O)N[C@@H](Cc2ccccc2)C(N)=O)C(C)C)NC(=O)[C@H](Cc2c[nH]c4ccccc24)NC(=O)[C@H](CCCCN)NC(=O)[C@H](Cc2cnc[nH]2)NC(=O)[C@H]([C@@H](C)O)NC(=O)[C@H](CCCNC(=N)N)NC(=O)[C@H](CO)NC3=O)NC(=O)[C@H](CCCCN)NC(=O)[C@H](CC(=O)O)NC(=O)[C@H](CC(N)=O)NC(=O)[C@H](C)NC(=O)[C@@H]2CCCN2C1=O` (H-DCLGFMRKCIPANDKCCRPNLVCSRTHKWCKYVF-NH2; disulfide 2-17, 9-23, 16-30) has an IC50 of over 5 µM.
`CC[C@H](C)[C@@H]1NC(=O)[C@@H]2CSSC[C@@H]3NC(=O)[C@H](C(C)C)NC(=O)[C@H](CC(C)C)NC(=O)[C@H](CC(N)=O)NC(=O)[C@@H]4CCCN4C(=O)[C@H](CCCNC(=N)N)NC(=O)[C@H](CSSC[C@H](NC(=O)[C@@H](N)CC(=O)O)C(=O)N[C@@H](CC(C)C)C(=O)NCC(=O)N[C@@H](Cc4ccccc4)C(=O)N[C@@H](CCSC)C(=O)N[C@@H](C)C(=O)N[C@@H](CCCCN)C(=O)N2)NC(=O)[C@H](CSSC[C@@H](C(=O)N[C@@H](CCCCN)C(=O)N[C@@H](Cc2ccc(O)cc2)C(=O)N[C@H](C(=O)N[C@@H](Cc2ccccc2)C(N)=O)C(C)C)NC(=O)[C@H](Cc2c[nH]c4ccccc24)NC(=O)[C@H](CCCCN)NC(=O)[C@H](Cc2cnc[nH]2)NC(=O)[C@H]([C@@H](C)O)NC(=O)[C@H](CCCNC(=N)N)NC(=O)[C@H](CO)NC3=O)NC(=O)[C@H](CCCCN)NC(=O)[C@H](CC(=O)O)NC(=O)[C@H](CC(N)=O)NC(=O)[C@H](CC(=O)O)NC(=O)[C@@H]2CCCN2C1=O` (H-DCLGFMAKCIPDNDKCCRPNLVCSRTHKWCKYVF-NH2; disulfide 2-17, 9-23, 16-30) gave an IC50 of over 5 µM.
`CC[C@H](C)[C@@H]1NC(=O)[C@@H]2CSSC[C@@H]3NC(=O)[C@H](C(C)C)NC(=O)[C@H](CC(C)C)NC(=O)[C@H](CC(N)=O)NC(=O)[C@@H]4CCCN4C(=O)[C@H](CCCNC(=N)N)NC(=O)[C@H](CSSC[C@H](NC(=O)[C@@H](N)CC(=O)O)C(=O)N[C@@H](CC(C)C)C(=O)NCC(=O)NCC(=O)N[C@@H](CCSC)C(=O)N[C@@H](CCCNC(=N)N)C(=O)N[C@@H](CCCCN)C(=O)N2)NC(=O)[C@H](CSSC[C@@H](C(=O)N[C@@H](CCCCN)C(=O)N[C@@H](Cc2ccc(O)cc2)C(=O)N[C@H](C(=O)N[C@@H](Cc2ccccc2)C(N)=O)C(C)C)NC(=O)[C@H](Cc2c[nH]c4ccccc24)NC(=O)[C@H](CCCCN)NC(=O)[C@H](Cc2cnc[nH]2)NC(=O)[C@H]([C@@H](C)O)NC(=O)[C@H](CCCNC(=N)N)NC(=O)[C@H](CO)NC3=O)NC(=O)[C@H](CCCCN)NC(=O)[C@H](CC(=O)O)NC(=O)[C@H](CC(N)=O)NC(=O)[C@H](CC(=O)O)NC(=O)[C@@H]2CCCN2C1=O` (H-DCLGGMRKCIPDNDKCCRPNLVCSRTHKWCKYVF-NH2; disulfide 2-17, 9-23, 16-30) was tested, and the IC50 was over 10 µM.
With `CCCC[C@@H]1NC(=O)[C@H](C)NC(=O)CNC(=O)[C@H](CC(C)C)NC(=O)[C@@H](NC(=O)[C@@H](N)CC(=O)O)CSSC[C@@H]2NC(=O)[C@@H]3CSSC[C@@H](C(=O)N[C@@H](CCCCN)C(=O)N[C@@H](Cc4ccc(O)cc4)C(=O)N[C@H](C(=O)N[C@@H](Cc4ccccc4)C(N)=O)C(C)C)NC(=O)[C@H](Cc4c[nH]c5ccccc45)NC(=O)[C@H](CCCCN)NC(=O)[C@H](Cc4cnc[nH]4)NC(=O)[C@H]([C@@H](C)O)NC(=O)[C@H](CCCNC(=N)N)NC(=O)[C@H](CO)NC(=O)[C@H](CSSC[C@H](NC(=O)[C@H](CCCCN)NC(=O)[C@H](CCCNC(=N)N)NC1=O)C(=O)N[C@@H]([C@@H](C)CC)C(=O)N1CCC[C@H]1C(=O)N[C@@H](CC(=O)O)C(=O)N[C@@H](CC(N)=O)C(=O)N[C@@H](CC(=O)O)C(=O)N[C@@H](CCCCN)C(=O)N3)NC(=O)[C@H](C(C)C)NC(=O)[C@H](CC(C)C)NC(=O)[C@H](CC(N)=O)NC(=O)[C@@H]1CCCN1C(=O)[C@H](CCCNC(=N)N)NC2=O` the IC50 was over 10 µM.
In the case of `CC[C@H](C)[C@@H]1NC(=O)[C@@H]2CSSC[C@@H]3NC(=O)[C@H](C(C)C)NC(=O)[C@H](CC(C)C)NC(=O)[C@H](CC(N)=O)NC(=O)[C@@H]4CCCN4C(=O)[C@H](CCCNC(=N)N)NC(=O)[C@H](CSSC[C@H](NC(=O)[C@@H](N)CC(=O)O)C(=O)N[C@@H](CC(C)C)C(=O)NCC(=O)N[C@@H](C4CCCC4)C(=O)N[C@@H](CCSC)C(=O)N[C@@H](CCCNC(=N)N)C(=O)N[C@@H](CCCCN)C(=O)N2)NC(=O)[C@H](CSSC[C@@H](C(=O)N[C@@H](CCCCN)C(=O)N[C@@H](Cc2ccc(O)cc2)C(=O)N[C@H](C(=O)N[C@@H](Cc2ccccc2)C(N)=O)C(C)C)NC(=O)[C@H](Cc2c[nH]c4ccccc24)NC(=O)[C@H](CCCCN)NC(=O)[C@H](Cc2cnc[nH]2)NC(=O)[C@H]([C@@H](C)O)NC(=O)[C@H](CCCNC(=N)N)NC(=O)[C@H](CO)NC3=O)NC(=O)[C@H](CCCCN)NC(=O)[C@H](CC(=O)O)NC(=O)[C@H](CC(N)=O)NC(=O)[C@H](CC(=O)O)NC(=O)[C@@H]2CCCN2C1=O`, the IC50 is reported as over 10 µM.
